Test results taken from US6627635B2, “Method of preventing abuse of opioid dosage forms” (priority 1997, dated 2003).

How the values were obtained:
[1] = in comparison to a 15 mg dose of hydrocodone
Text: In certain preferred embodiments, the opioid agonist is hydrocodone.

[2] = Simulated extractability of naltrexone HCl from hydrocodone bitartrate CR AcroContin tablets, 5 tablets in 5 mL solvent (HPLC recovery); format: physicochemical; details: for % Precipitated: 5 tablets in 5 mL; for extractable from the tablets at the higher pH's: high pH (substantially greater than pH 10, preferably above pH 11)
[3] = pKa values of the drug substances
[4] = Simulated extractability of naltrexone HCl from hydrocodone bitartrate CR AcroContin tablets, 4 tablets in 25 mL solvent (HPLC recovery); details: for solubility in acetone: poor recoveries; for dissolution in the solvents: all of the solvents except acetone
[5] = hydrochloride salt; cited from earlier work
[6] = cited from earlier work
[7] = after oral doses; cited from earlier work
mu over delta sites = details: cited from earlier work
[8] = Extractability of naltrexone HCl (1.5 mg) from oxycodone HCl (15 mg), 5 tablets/5 mL solvent; format: physicochemical
[9] = tested on: effects of morphine-like opioid agonist; details: cited from earlier work

COc1ccc2c3c1O[C@H]1[C@@H](O)C=C[C@H]4[C@@H](C2)N(C)CC[C@@]341 [Codeine]
Equianalgesic Doses of Opioids, Calculated Dose [1]: 90.0 mg

COc1ccc2c3c1OC1C(=O)CC[C@H]4[C@@H](C2)N(C)CC[C@]314 (some centres unmarked) [Hydrocodone, 4,5-epoxy-3-methoxy-17-methylmorphinan-6-one]
% Precipitated ([2]; diluent pH 7.1): 8% | % Precipitated ([2]; diluent pH 8.0): 12% | % Precipitated ([2]; diluent pH 9.0): 27% | % Precipitated ([2]; diluent pH 10.0): 28% | % Precipitated ([2]; diluent pH 11.0): 21% | % Precipitated ([2]; diluent pH 12.0): 83% | % Precipitated ([2]; diluent pH 12.7): 81% | extractable from the tablets at the higher pH's [2]: about 80% | Equianalgesic Doses of Opioids, Calculated Dose [1]: 15.0 mg | pKa ([3]; at amine functional group): 9.2 | solubility in acetone [4]: less soluble | dissolution in the solvents [4]: dissolved completely

CN1CC[C@]23CCCC[C@H]2[C@H]1Cc1ccc(O)cc13 [Levorphanol]
Equianalgesic Doses of Opioids, Calculated Dose [1]: 1.8 mg

CCC(=O)C(CC(C)N(C)C)(c1ccccc1)c1ccccc1 (centres unmarked) [Methadone]
Equianalgesic Doses of Opioids, Calculated Dose [1]: 9.0 mg

O=C1CC[C@@]2(O)[C@H]3Cc4ccc(O)c5c4[C@@]2(CCN3CC2CC2)[C@H]1O5 [Naltrexone]
extractable from the tablets at the higher pH's [2]: about 10% | extractable from the tablets at the higher pH's ([2]; listed as Naltrexone Hydrochloride): ~10% | soluble in water [5]: about 100 mg/cc | protein binding ([6]; in vivo): approximately 21% | oral bioavailability ([6]; oral): 5-40% | duration of action [7]: ~24 h | blocking action, receptor preference (mu over delta sites): strong preferential blocking action | pKa ([3]; at amine functional group): 8.4 | pKa ([3]; at phenol functional group): 10.3 | solubility in acetone [4]: less soluble | dissolution in the solvents [4]: dissolved completely

COc1ccc2c3c1O[C@H]1C(=O)CC[C@@]4(O)[C@@H](C2)N(C)CC[C@]314 [Oxycodone]
% Precipitated ([8]; diluent Ethanol): 13% | % Precipitated ([8]; diluent IPA): 86% | % Precipitated ([8]; diluent Methanol): 13% | % Precipitated ([8]; diluent pH 6.9): 6% | % Precipitated ([8]; diluent pH 8.1): 87% | % Precipitated ([8]; diluent pH 9.4): 98% | % Precipitated ([8]; diluent pH 10.2): 98% | % Precipitated ([8]; diluent pH 11.0): 98% | % Precipitated ([8]; diluent pH 11.9): 98% | % Precipitated ([8]; diluent pH 12.8): 98% | Equianalgesic Doses of Opioids, Calculated Dose [1]: 13.5 mg

C[C@H]1[C@H]2Cc3ccc(O)cc3[C@]1(C)CCN2CC1CC1 [cyclazocine]
duration of action [7]: ~24 h

C=CCN1CC[C@]23c4c5ccc(O)c4O[C@H]2C(=O)CC[C@@]3(O)[C@H]1C5 [naloxone]
antagonism of morphine-like opioid agonist effects ([9]; 0.4-0.8 mg intramuscularly or intravenously in man): prevent or promptly reverse the effects of morphine-like opioid agonist | block of the effect of 25 mg of heroin ([9]; one mg intravenously): completely block

Meperidine
Equianalgesic Doses of Opioids, Calculated Dose [1]: 135.0 mg
